These results are taken from patent publication US8835420B2, “Azaindole derivatives” (Takeda Pharmaceutical Company Limited, priority 2012, dated 2014).

The structures appear in SMILES notation.

The target in this assay is T1, PI3Kδ (recombinant GST-tagged PIK3CD co-expressed with PIK3R1, p85α) (Homo sapiens, UniProt O00329).
T1 construct: The protein is full length and co-expressed with untagged PIK3R1; GST; purchased Invitrogen PV5274
The assay is described as follows: PI3Kδ inhibition, modified PIK3CD Adapta TR-FRET kinase assay. The class given is biochemical. The settings on record: 2 μM ATP, 50 μM PIP2, 1 hour at room temperature, pIC50 = -log(IC50 in M). The procedure: The activity of compounds as PI3Kδ inhibitors may be determined by a variety of methods, including in vitro and in vivo methods. The following in vitro assay measures a test compound's ability to inhibit PI3Kδ-mediated phosphorylation of PIP2 and ATP.
Recombinant GST-tagged PIK3CD is purchased from Invitrogen (Part Number: PV5274). The protein is full length and co-expressed with untagged PIK3R1, phosphoinositide-3-kinase regulatory subunit 1 (p85α). The protein is stored at −20° C. in 50 mM TRIS (pH 7.5), 150 mM NaCl, 0.5 mM EDTA, 0.02% Triton® X-100, 2 mM DTT, and 50% glycerol.
A modified PIK3CD Adapta® assay (Invitrogen, Carlsbad, Calif.) is used to measure PI3Kδ inhibition of the example compounds. The assay has two phases. In the first phase, kinase reaction components, which include the enzyme (PIK3CD), substrates (PIP2, ATP), test compound (inhibitor), and assay buffer are added to each well, and the reaction is allowed to incubate for a pre-determined period of time. After reaction, a detection solution composed of a Eu (europium)-labeled anti-ADP antibody, Alexa Fluor® 647-labeled ADP tracer, and EDTA (to stop the kinase reaction) is added to each assay well. In this second phase, ADP formed by the kinase reaction displaces the Alexa Fluor® 647-labeled ADP tracer from the antibody, resulting in a decrease in time-resolved fluorescence resonance energy transfer (TR-FRET) signal. In the presence of the inhibitor, the amount of ADP formed by the kinase reaction is reduced, and the resulting intact antibody-tracer interaction maintains a high TR-FRET signal.
The assay uses black Greiner® 384-well plates (784076). The reaction buffer contains 50 mM Hepes (pH 7.5), 3 mM MgCl2, 1 mM EGTA, 100 mM NaCl, 0.03% CHAPS; 2 mM DTT is added fresh prior to each experiment. Enzyme (4 μL, estimated 1.5 nM in buffer) is first added to the wells of the plate. Next, test compounds (2 μL) from a source plate (5% dilution plate) are introduced into the wells. The final DMSO concentration in each assay well is 1%. The dilution plate contains 5% DMSO in the bottom half of columns 23 and 24, which serve as negative (non-inhibited) controls; the top half contains a known inhibitor concentration (positive control) that gives >98% inhibition of the kinase reaction. Other wells contain test compounds serially diluted across the plate 11 times for a total of 12 data points. The kinase reactions are carried out at room temperature and are initiated by the addition of 4 μL of solution containing 2 μM ATP and 50 μM PIP2. Each reaction is stopped after 1 hour±10 minutes via addition of 10 μL stop solution, which contains a final assay concentration of 3 nM Alexa Fluor® 647-labeled ADP tracer, 2 nM Eu-anti-ADP Antibody, and 10 mM EDTA. After allowing the solutions to equilibrate for 30±10 minutes, a PHERAstar plate reader is used to excite the Eu donor (at 337 nm) and to detect emission from the Alexa Fluor® 647 at 665 nm. This emission signal is referenced or “ratioed” to the emission from Eu at 620 nm. The emission ratio (665 nm/620 nm) from each well is collected and converted to percent conversion using a standard curve for the assay conditions: % conversion=B*(C+A−emission ratio)/(emission ratio−C), where “A” and “C” are the maximum and minimum values of the emission ratio obtained from the standard curve of emission ratio vs. % conversion (ATP-ADP); “B” is the emission ratio corresponding to the % conversion at the EC50 value for the ADP Tracer—Eu anti-ADP antibody complex. The percent inhibition for a given inhibitor concentration is computed from % conversion for the reaction and for the positive and negative controls. Corresponding IC50 values are calculated by non-linear curve fitting of the compound concentrations and values of percent inhibition to the standard IC50 equation and are reported as pIC50, i.e., −log(IC50), where IC50 is molar concentration at 50% inhibition.
On the technique in general: Time-resolved FRET reads energy transfer from a long-lived donor to a nearby acceptor.

T1 sequence (O00329 whole entry): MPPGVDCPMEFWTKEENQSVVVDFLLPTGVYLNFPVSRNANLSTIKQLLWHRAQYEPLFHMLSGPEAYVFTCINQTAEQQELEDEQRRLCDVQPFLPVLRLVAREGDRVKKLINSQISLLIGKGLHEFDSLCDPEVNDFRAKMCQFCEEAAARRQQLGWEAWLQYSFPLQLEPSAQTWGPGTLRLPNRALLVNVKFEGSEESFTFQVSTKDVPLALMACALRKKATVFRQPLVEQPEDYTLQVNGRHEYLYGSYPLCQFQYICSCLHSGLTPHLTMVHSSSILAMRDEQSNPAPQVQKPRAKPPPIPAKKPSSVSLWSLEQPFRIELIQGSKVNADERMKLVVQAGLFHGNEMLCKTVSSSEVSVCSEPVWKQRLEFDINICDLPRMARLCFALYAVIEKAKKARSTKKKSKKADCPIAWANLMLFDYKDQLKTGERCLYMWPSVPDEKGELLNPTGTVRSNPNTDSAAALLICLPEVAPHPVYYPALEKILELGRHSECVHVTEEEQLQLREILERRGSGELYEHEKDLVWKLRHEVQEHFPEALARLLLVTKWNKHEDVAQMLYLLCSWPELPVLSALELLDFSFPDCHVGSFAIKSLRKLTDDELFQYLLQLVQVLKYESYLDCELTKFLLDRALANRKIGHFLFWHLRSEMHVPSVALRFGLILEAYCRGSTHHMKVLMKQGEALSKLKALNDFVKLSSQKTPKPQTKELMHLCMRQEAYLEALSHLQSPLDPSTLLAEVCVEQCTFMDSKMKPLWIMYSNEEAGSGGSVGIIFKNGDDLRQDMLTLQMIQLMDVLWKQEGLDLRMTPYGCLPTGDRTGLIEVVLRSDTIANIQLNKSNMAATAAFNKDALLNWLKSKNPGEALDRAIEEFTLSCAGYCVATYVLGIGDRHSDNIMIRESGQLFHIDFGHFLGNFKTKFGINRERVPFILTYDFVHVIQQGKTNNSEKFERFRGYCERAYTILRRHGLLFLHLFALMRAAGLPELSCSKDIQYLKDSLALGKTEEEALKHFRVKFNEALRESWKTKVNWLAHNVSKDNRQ
T1 sequence (P27986 whole entry partner): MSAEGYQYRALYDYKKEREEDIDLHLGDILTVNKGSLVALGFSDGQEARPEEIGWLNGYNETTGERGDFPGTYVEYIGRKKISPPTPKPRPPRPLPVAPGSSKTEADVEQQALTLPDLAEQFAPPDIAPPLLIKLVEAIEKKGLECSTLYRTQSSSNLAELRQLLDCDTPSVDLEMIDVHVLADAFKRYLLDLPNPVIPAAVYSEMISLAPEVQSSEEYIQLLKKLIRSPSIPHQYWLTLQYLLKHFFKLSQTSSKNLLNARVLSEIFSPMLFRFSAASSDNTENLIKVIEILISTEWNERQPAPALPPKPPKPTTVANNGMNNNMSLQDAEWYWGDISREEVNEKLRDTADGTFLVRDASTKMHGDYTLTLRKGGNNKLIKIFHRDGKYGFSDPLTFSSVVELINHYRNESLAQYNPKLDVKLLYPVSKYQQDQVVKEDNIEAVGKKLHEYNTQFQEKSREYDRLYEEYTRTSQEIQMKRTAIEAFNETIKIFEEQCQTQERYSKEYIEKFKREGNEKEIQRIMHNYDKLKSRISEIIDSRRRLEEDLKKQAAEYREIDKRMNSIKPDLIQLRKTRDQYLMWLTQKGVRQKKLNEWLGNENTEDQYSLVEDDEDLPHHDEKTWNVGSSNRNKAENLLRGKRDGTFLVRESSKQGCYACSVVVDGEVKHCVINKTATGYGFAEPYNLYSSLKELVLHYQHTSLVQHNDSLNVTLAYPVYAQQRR

For orientation: IC50 means the concentration that gives 50% inhibition. `C[C@H](Nc1nc(N)nc(N)c1C#N)c1nc2ccn(C)c2cc1-c1ccnn1C` [Example 2, (S)-2,4-Diamino-6-((1-(1-methyl-6-(1-methyl-1H-pyrazol-5-yl)-1H-pyrrolo[3,2-b]pyridin-5-yl)ethyl)amino)pyrimidine-5-carbonitrile]: the IC50 is 2.51 nM. With `C[C@H](Nc1nc(N)nc(N)c1C#N)c1nc2ccn(C)c2cc1N1CCOCC1` [Example 29, (S)-2,4-Diamino-6-((1-(1-methyl-6-morpholino-1H-pyrrolo[3,2-b]pyridin-5-yl)ethyl)amino)pyrimidine-5-carbonitrile] the figure was < 1.26 nM; with `C[C@H](Nc1nc(N)ncc1Cl)c1nc2ccn(C)c2cc1N1CCOCC1` [Example 5, (S)-5-Chloro-N^4-(1-(1-methyl-6-morpholino-1H-pyrrolo[3,2-b]pyridin-5-yl)ethyl)pyrimidine-2,4-diamine], 126 nM; with `C[C@H](Nc1nc(N)ncc1Cl)c1nc2ccn(C)c2cc1-c1ccnn1C` [Example 1, (S)-5-Chloro-N^4-(1-(1-methyl-6-(1-methyl-1H-pyrazol-5-yl)-1H-pyrrolo[3,2-b]pyridin-5-yl)ethyl)pyrimidine-2,4-diamine], 126 nM. With `CC(Nc1nc(N)nc(N)c1C#N)c1nc2ccn(C)c2cc1N1CC(O)C1` (centres unmarked) [Example 39, 2,4-Diamino-6-((1-(6-(3-hydroxyazetidin-1-yl)-1-methyl-1H-pyrrolo[3,2-b]pyridin-5-yl)ethyl)amino)pyrimidine-5-carbonitrile] the figure was < 1.58 nM; with `C[C@H](Nc1nc(N)nc(N)c1C#N)c1nc2ccn(C)c2cc1N1CC2(COC2)C1` [Example 47, (S)-2,4-Diamino-6-((1-(1-methyl-6-(2-oxa-6-azaspiro[3.3]heptan-6-yl)-1H-pyrrolo[3,2-b]pyridin-5-yl)ethyl)amino)pyrimidine-5-carbonitrile], 15.8 nM; with `C[C@H](Nc1nc(N)nc2[nH]cnc12)c1nc2ccn(C)c2cc1-c1ccnn1C` [Example 16, (S)—N^6-(1-(1-Methyl-6-(1-methyl-1H-pyrazol-5-yl)-1H-pyrrolo[3,2-b]pyridin-5-yl)ethyl)-9H-purine-2,6-diamine], 7.94 nM.

For `C[C@@H](Nc1nc(N)nc(N)c1C#N)c1nc2ccn(C)c2cc1N1CC(F)(F)C1` [Example 43, (R)-2,4-Diamino-6-((1-(6-(3,3-difluoroazetidin-1-yl)-1-methyl-1H-pyrrolo[3,2-b]pyridin-5-yl)ethyl)amino)pyrimidine-5-carbonitrile], the IC50 is 1000 nM.

For the compound `CC(Nc1nc(N)nc(N)c1Cl)c1nc2ccn(C)c2cc1N1CC(O)C1` (centres unmarked) [Example 40, 1-(5-(1-((2,6-Diamino-5-chloropyrimidin-4-yl)amino)ethyl)-1-methyl-1H-pyrrolo[3,2-b]pyridin-6-yl)azetidin-3-ol], the half-maximal inhibitory concentration (IC50) was 79.4 nM.

In the case of `C[C@H](Nc1nc(O)nc(N)c1C#N)c1nc2ccn(C)c2cc1-c1ccnn1C` [Example 11, (S)-4-Amino-2-hydroxy-6-((1-(1-methyl-6-(1-methyl-1H-pyrazol-5-yl)-1H-pyrrolo[3,2-b]pyridin-5-yl)ethyl)amino)pyrimidine-5-carbonitrile], the IC50 was 1260 nM. With `C[C@@H](Nc1nc(N)nc(N)c1C#N)c1nc2ccn(C)c2cc1N1CCOCC1` [Example 48, (R)-2,4-Diamino-6-((1-(1-methyl-6-morpholino-1H-pyrrolo[3,2-b]pyridin-5-yl)ethyl)amino)pyrimidine-5-carbonitrile] the figure was 79.4 nM; with `C[C@H](Nc1nc(N)nc2[nH]cnc12)c1nc2ccn(C)c2cc1-c1ccccn1` [Example 34, (S)—N^6-(1-(1-Methyl-6-(pyridin-2-yl)-1H-pyrrolo[3,2-b]pyridin-5-yl)ethyl)-9H-purine-2,6-diamine], 5.01 nM.

Turning to `C[C@H](Nc1nc(N)nc(N)c1C#N)c1nc2ccn(C)c2cc1N1CCC(C)(O)CC1` [Example 21, (S)-2,4-Diamino-6-((1-(6-(4-hydroxy-4-methylpiperidin-1-yl)-1-methyl-1H-pyrrolo[3,2-b]pyridin-5-yl)ethyl)amino)pyrimidine-5-carbonitrile], the IC50 is 5.01 nM. The same measure for `C[C@H](Nc1nc(N)ncc1F)c1nc2ccn(C)c2cc1-c1ccnn1C` [Example 7, (S)-5-Fluoro-N^4-(1-(1-methyl-6-(1-methyl-1H-pyrazol-5-yl)-1H-pyrrolo[3,2-b]pyridin-5-yl)ethyl)pyrimidine-2,4-diamine]: 79400 nM; for `COC1CN(c2cc3c(ccn3C)nc2[C@H](C)Nc2nc(N)nc(N)c2C#N)C1` [Example 41, (S)-2,4-Diamino-6-((1-(6-(3-methoxyazetidin-1-yl)-1-methyl-1H-pyrrolo[3,2-b]pyridin-5-yl)ethyl)amino)pyrimidine-5-carbonitrile]: < 1.58 nM; for `CC(Nc1nc(N)nc(N)c1Cl)c1nc2ccn(C)c2cc1N1CC(F)(F)C1` (centres unmarked) [Example 38, 5-Chloro-N^4-(1-(6-(3,3-difluoroazetidin-1-yl)-1-methyl-1H-pyrrolo[3,2-b]pyridin-5-yl)ethyl)pyrimidine-2,4,6-triamine]: 158 nM. The same measure for `C[C@@H](Nc1nc(N)nc(N)c1C#N)c1nc2ccn(C)c2cc1N1CCC(C)(O)CC1` [Example 22, (R)-2,4-Diamino-6-((1-(6-(4-hydroxy-4-methylpiperidin-1-yl)-1-methyl-1H-pyrrolo[3,2-b]pyridin-5-yl)ethyl)amino)pyrimidine-5-carbonitrile]: 2000 nM; for `C[C@H](Nc1nc(N)nc(N)c1C#N)c1nc2ccn(C)c2cc1-c1ccccn1` [Example 12, (S)-2,4-Diamino-6-((1-(1-methyl-6-(pyridin-2-yl)-1H-pyrrolo[3,2-b]pyridin-5-yl)ethyl)amino)pyrimidine-5-carbonitrile]: 1.58 nM. As for `C[C@H](Nc1nc(N)nc2[nH]cnc12)c1nc2ccn(C)c2cc1-c1ccnn1C1CC1` [Example 36, (S)-N^6-(1-(6-(1-Cyclopropyl-1H-pyrazol-5-yl)-1-methyl-1H-pyrrolo[3,2-b]pyridin-5-yl)ethyl)-9H-purine-2,6-diamine], the IC50 was 10 nM. The same measure for `C[C@H](Nc1nc(O)nc(N)c1C#N)c1nc2ccn(C)c2cc1N1CCOCC1` [Example 8, (S)-4-Amino-2-hydroxy-6-((1-(1-methyl-6-morpholino-1H-pyrrolo[3,2-b]pyridin-5-yl)ethyl)amino)pyrimidine-5-carbonitrile]: 1000 nM; for `C[C@H](Nc1nc(N)nc(N)c1C#N)c1nc2c(O)cn(C)c2cc1N1CCOCC1` [Example 49, (S)-2,4-Diamino-6-((1-(3-hydroxy-1-methyl-6-morpholino-1H-pyrrolo[3,2-b]pyridin-5-yl)ethyl)amino)pyrimidine-5-carbonitrile]: 251 nM; for `C[C@H](Nc1nc(N)nc2[nH]cnc12)c1nc2ccn(C)c2cc1N1CCOCC1` [Example 27, (S)—N^6-(1-(1-Methyl-6-morpholino-1H-pyrrolo[3,2-b]pyridin-5-yl)ethyl)-9H-purine-2,6-diamine]: 10 nM. With `Cc1nc(N)nc(N[C@@H](C)c2nc3ccn(C)c3cc2-c2c(C)noc2C)c1C#N` [Example 31, 2-Amino-4-(((1S)-1-(6-(3,5-dimethylisoxazol-4-yl)-1-methyl-1H-pyrrolo[3,2-b]pyridin-5-yl)ethyl)amino)-6-methylpyrimidine-5-carbonitrile] the figure was 3.98 nM.
